Experiment [1] relates to Eotaxin-3 (CCL26) release in human whole blood stimulated with IL-4. Nature of the experiment: Human whole blood eotaxin-3 assay (IL-4 stimulated eotaxin-3 release). Type of experiment: cell-based. Conditions: Homo sapiens, 48 h, human whole blood stimulated with recombinant human IL-4, 48 h, geometric mean; for EC50: inhibition of eotaxin-3 release, given for test compounds with >80% Emax. The essentials:
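Lithium-heparin human whole blood was preincubated with compound (4-fold serial dilution, 0.5% DMSO final) for 2 h at 37° C, then stimulated with recombinant human IL-4 at […] final for 48 h. Eotaxin-3 (CCL26) in the supernatant was measured by MSD immunoassay.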

In experiment [2] the target is T1, Human STAT6 (truncated, aa122-658, with N-terminal His-tag) (Homo sapiens, UniProt P42226).
T1 construct: Human STAT6 (truncated, aa122-658, with N-terminal His-tag, expressed in insect cells); His-tag (N); made in house; host or cells: insect cells
T1 sequence (P42226 122-658): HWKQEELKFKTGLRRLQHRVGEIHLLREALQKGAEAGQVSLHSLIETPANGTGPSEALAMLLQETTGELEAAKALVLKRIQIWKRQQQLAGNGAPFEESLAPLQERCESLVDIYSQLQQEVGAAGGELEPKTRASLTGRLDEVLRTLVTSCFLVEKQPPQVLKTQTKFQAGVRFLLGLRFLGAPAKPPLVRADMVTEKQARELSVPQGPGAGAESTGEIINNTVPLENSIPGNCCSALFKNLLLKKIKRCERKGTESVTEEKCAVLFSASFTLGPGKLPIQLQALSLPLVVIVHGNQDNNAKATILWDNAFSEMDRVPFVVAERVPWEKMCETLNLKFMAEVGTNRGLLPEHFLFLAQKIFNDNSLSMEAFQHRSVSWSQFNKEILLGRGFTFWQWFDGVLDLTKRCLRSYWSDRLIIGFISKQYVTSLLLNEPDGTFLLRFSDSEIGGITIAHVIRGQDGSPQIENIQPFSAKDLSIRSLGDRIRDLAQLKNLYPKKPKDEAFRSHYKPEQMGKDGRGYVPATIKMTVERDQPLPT
Nature of the experiment: Surface plasmon resonance (SPR) assay, binding to human STAT6. The following applies: Biacore 8K, 25° C, immobilized human STAT6 on CM5 chip, multi-cycle kinetics; geometric mean. The gist of the method: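 Truncated STAT6 (aa122-658, N-His, insect-cell expressed) was amine-coupled to a CM5 chip, and compounds were run as multi-cycle kinetics at 25 °C in PBS-P+ with 2% DMSO (60 s contact, up to 300 s dissociation). KD came from steady-state isotherms at a late report point, fitted with free and with fixed theoretical Rmax (1:1).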
On the technique in general: In SPR one partner is held on a chip, and binding of the other changes the refractive index at the surface.

This note sets out measurements from patent publication US20260001893A1, “SMALL MOLECULE MODULATORS OF STAT6” (Gilead Sciences, Inc., priority 2024, published 2026).

One may read the EC50 as the concentration at which the effect is half-maximal. In general, Kd refers to the free concentration of one partner at which half of the binding sites on the other are occupied at equilibrium, for simple one-to-one binding. A low value points to a tighter complex. In the case of `CNc1ccn(-c2ccnc3c2cc(CN2CCN(c4ccc(C(=O)N(C)C)cc4C)CC2)n3C)c(=O)c1` [Example 1m6, N,N,3-Trimethyl-4-(4-((1-methyl-4-(4-(methylamino)-2-oxopyridin-1 (2H)-yl)-1H-pyrrolo[2,3-b]pyridin-2-yl)methyl)piperazin-1-yl)benzamide], in experiment [1], the EC50 amounted to 74.7 nM. In addition, binding in experiment [2] was characterised by a dissociation constant (Kd) of 16.6 nM.

Take `CNc1ccn(-c2ccnc3c2cc(CN2CC=C(c4ccc(C(=O)N(C)C)cc4C)CC2)n3C)c(=O)c1` [Example 1m9, N,N,3-Trimethyl-4-(1-((1-methyl-4-(4-(methylamino)-2-oxopyridin-1 (2H)-yl)-1H-pyrrolo[2,3-b]pyridin-2-yl)methyl)-1,2,3,6-tetrahydropyridin-4-yl)benzamide]: the EC50 in experiment [1] turned out to be 32.1 nM. This compound displayed a dissociation constant (Kd) in experiment [2] of 11.8 nM.

For the compound `[2H]C([2H])([2H])N(C(=O)c1ccc(C2=CCN(Cc3cc4c(-n5ccc(NC)cc5=O)ccnc4n3C)CC2)c(C)c1)C([2H])([2H])[2H]` [Example 1m10, 3-Methyl-N,N-bis(methyl-d3)-4-(1-((1-methyl-4-(4-(methylamino)-2-oxopyridin-1 (2H)-yl)-1H-pyrrolo[2,3-b]pyridin-2-yl)methyl)-1,2,3,6-tetrahydropyridin-4-yl)benzamide], the 50% effective concentration (EC50) in experiment [1] is 37.4 nM. In experiment [2], this compound yielded a Kd of 9.57 nM.

Turning to `CNc1ccn(-c2ccnc3c2cc(CN2CC=C(c4c(C)cc(C(=O)N(C)C)cc4C)CC2)n3C)c(=O)c1` [Example 1m12, N,N,3,5-Tetramethyl-4-(1-((1-methyl-4-(4-(methylamino)-2-oxopyridin-1 (2H)-yl)-1H-pyrrolo[2,3-b]pyridin-2-yl)methyl)-1,2,3,6-tetrahydropyridin-4-yl)benzamide], the EC50 in experiment [1] is 15.6 nM. Besides, the equilibrium dissociation constant (Kd) in experiment [2] turned out to be 8.66 nM.

Turning to `CNc1ccn(-c2ccnc3c2cc(CN2CCN(c4ccc(C(=O)N(C)C)cc4C)C[C@@H]2C)n3C)c(=O)c1` [Example 1m18, (S)—N,N,3-Trimethyl-4-(3-methyl-4-((1-methyl-4-(4-(methylamino)-2-oxopyridin-1 (2H)-yl)-1H-pyrrolo[2,3-b]pyridin-2-yl)methyl)piperazin-1-yl)benzamide], the EC50 in experiment [1] worked out at 53.6 nM. The compound further displayed a Kd in experiment [2] of 18.9 nM.

In the case of `CNc1ccn(-c2ccnc3c2cc(CN2CCN(c4ccc(C(=O)N(C)C)cc4C)C[C@H]2C)n3C)c(=O)c1` [Example 1m19, (R)—N,N,3-Trimethyl-4-(3-methyl-4-((1-methyl-4-(4-(methylamino)-2-oxopyridin-1 (2H)-yl)-1H-pyrrolo[2,3-b]pyridin-2-yl)methyl)piperazin-1-yl)benzamide], the 50% effective concentration (EC50) in experiment [1] worked out at 122 nM. The Kd in experiment [2] is 23.5 nM.

Usually Emax stands for the size of the effect at its maximum, as opposed to the concentration needed. Turning to `CNc1ccn(-c2ccnc3c2cc(CN2CC=C(c4ccc(C(=O)N(C)C)cc4)CC2)n3C)c(=O)c1` [Example 1m35, N,N-Dimethyl-4-(1-((1-methyl-4-(4-(methylamino)-2-oxopyridin-1 (2H)-yl)-1H-pyrrolo[2,3-b]pyridin-2-yl)methyl)-1,2,3,6-tetrahydropyridin-4-yl)benzamide], the Emax in experiment [1] (given for test compounds with <80% Emax) lay in the range of 40 to 50%. In experiment [2], this compound displayed a Kd of 35 nM.

In the case of `CNc1ccn(-c2ccnc3c2cc(CN2CC=C(c4ccc(C(=O)N(C)C)cc4OC)CC2)n3C)c(=O)c1` [Example 1m54, 3-Methoxy-N,N-dimethyl-4-(1-((1-methyl-4-(4-(methylamino)-2-oxopyridin-1 (2H)-yl)-1H-pyrrolo[2,3-b]pyridin-2-yl)methyl)-1,2,3,6-tetrahydropyridin-4-yl)benzamide], the EC50 in experiment [1] is 190 nM. In experiment [2], this compound had a Kd of 18.5 nM.

`CNc1ccn(-c2ccnc3c2cc(CN2CC=C(c4ccc(C(=O)N(C)C)cc4C(F)(F)F)CC2)n3C)c(=O)c1` [Example 1m59, N,N-Dimethyl-4-(1-((1-methyl-4-(4-(methylamino)-2-oxopyridin-1 (2H)-yl)-1H-pyrrolo[2,3-b]pyridin-2-yl)methyl)-1,2,3,6-tetrahydropyridin-4-yl)-3-(trifluoromethyl)benzamide]: the EC50 in experiment [1] was 96.1 nM. This compound yielded a dissociation constant Kd in experiment [2] of 14.3 nM.

`CNc1ccn(-c2ccnc3c2cc(CN2CC=C(c4ccc(C(=O)N(C)C)cc4Cl)CC2)n3C)c(=O)c1` [Example 1m64, 3-Chloro-N,N-dimethyl-4-[1-[[1-methyl-4-[4-(methylamino)-2-oxo-1-pyridyl]pyrrolo[2,3-b]pyridin-2-yl]methyl]-3,6-dihydro-2H-pyridin-4-yl]benzamide]: in experiment [1], the concentration for a half-maximal effect (EC50) came to 170 nM. In experiment [2], this compound had a Kd of 12 nM.

With `CNc1ccn(-c2ccnc3c2cc(CN2CC=C(c4ncc(C(=O)N(C)C)cc4F)CC2)n3C)c(=O)c1` [Example 1m67, 5-Fluoro-N,N-dimethyl-6-[1-[[1-methyl-4-[4-(methylamino)-2-oxo-1-pyridyl]pyrrolo[2,3-b]pyridin-2-yl]methyl]-3,6-dihydro-2H-pyridin-4-yl]pyridine-3-carboxamide], the EC50 in experiment [1] turned out to be 80.1 nM. In experiment [2], this compound came in with a Kd of 33.4 nM.
